Reference: patent publication US10670605B2, “Cysteine reactive probes and uses thereof” (The Scripps Research Institute, priority 2015, dated 2020)

Legend:
primary human T cells = assay: T cell activation markers CD25 and CD69 (flow cytometry); assay type: cell-based; conditions: 2.5 mM, 8 h
Method: 96-well plates were coated with anti-CD3 (1:200; BioXcell) and anti-CD28 (1:500; 302933; BioLegend) in PBS (100 μL/well) overnight at 4° C. The plates were then washed twice with PBS and to each well was added 500,000 primary T cells in 100 μL of RPMI supplemented with 10% FBS, glutamine, and Pen-Strep. Cells were then treated with 100 μL of media containing compound at the indicated concentrations (final well volume of 200 μL). Cells were left at 37° C. in a 5% CO2 incubator for the indicated periods of time and harvested by centrifugation (500 g, 8 min, 4° C.), followed by washing with PBS.
Flow cytometry analysis of cell surface antigens was performed with the following antibodies: Pacific Blue-conjugated anti-CD8 (1:25 dilution; clone RPA-T8; BD Biosciences), APC-conjugated anti-CD4 (1:25 dilution; clone RPA-T4; eBioscience), phycoerythrin-conjugated anti-CD25 (1:25 dilution; clone BC96; eBioscience or PC61; BioLegend (PKCθ studies)), FITC-conjugated anti-CD69 (1:25 dilution; clone FN50; eBioscience). All antibodies were diluted in 1% FBS in PBS, and 50 μL of the stain solution was added to each well. […] Flow cytometry acquisition was performed with BD FACSDivam-driven BD™ LSR II flow cytometer (Becton, Dickinson and Company). Data was then analyzed with FlowJo software (Treestar Inc.). Data represent mean±SE for four-five experiments per group.

[1] = tested on: intracellular GSH in primary human T cells; assay: Quantification of cellular glutathione (GSH) levels; assay type: cell-based; conditions: DMF 50 μM 2 h; BSO 2.5 mM 4 h
Method: Primary human T cells (2.5 million cells/mL, 20 mL per condition) were treated as indicated, harvested by centrifugation (500 g, 8 min, 4° C.), and washed twice with PBS. To the cell pellet was added 75 μL of lysis buffer. […] Protein concentrations were adjusted to at least 5 mg/mL and the assay performed according to manufacturer's instructions (Sigma-Aldrich, CS 1020). Data represent mean±SE for two biological replicates.

[2] = tested on: Cys residues in primary human T cells; assay: isoTOP-ABPP of compound-treated primary human T cells; assay type: cell-based; conditions: MMF 50 μM 4 h; BSO 2.5 mM 4 h
IMPDH2 (C140) = assay: Click probe 18 labeling of recombinant IMPDH2 and its competition; assay type: binding, human; conditions: probe 25 μM
[3] = tested on: protein targets in MDA-MB-231 cells; assay: Whole protein capture with click probes (SILAC proteomics), native vs heat denatured; assay type: binding, human; conditions: proteins liganded by parent fragment (3 / 14) and enriched by click probe (19 / 18)
Method: Protein enrichment by 18 and 19 was measured by whole protein capture of isotopically-SILAC labeled MDA-MB-231 cells using quantitative (SILAC) proteomics.

SMILES	T cell activation (CD25) (primary human T cells)	cellular GSH content [1]	alteration of the ~40 DMF-sensitive Cys residues [2]	direct labeling of IMPDH2 WT and mutants by click probe (IMPDH2 (C140))	percentage of quantified protein targets sensitive to heat denaturation [3] [%]
CCCCS(=N)(=O)CCC(N)C(=O)O (centres unmarked) [BSO, buthionine sulfoximine]	no effect	Significant reductions	none	–	–
C#CCCCCNC(=O)c1cc(NC(=O)C=C)cc(C(F)(F)F)c1 [compound 18]	–	–	–	labeled WT-IMPDH2 and a C331S-IMPDH2 mutant, but not the C140S or C140S/C331S mutants	73
